Consider twelve compounds from patent publication US7220876B2, “Arylcycloalkyl derivatives having branched side chains, processes for their preparation and their use as pharmaceuticals” (Sanofi-Aventis Deutschland GmbH, priority 2003, dated 2007).

Molecules are shown by their SMILES.

For the assay, the target named is T1, human PPARalpha (Homo sapiens, UniProt Q07869).
T1 construct: human PPARalpha receptor (amino acids S167-Y468); expressed in transfected cells; host or cells: HEK (human embryo kidney) cells, stably transfected with pcDNA3 carrying the fusion construct
T1 sequence (Q07869 167-468): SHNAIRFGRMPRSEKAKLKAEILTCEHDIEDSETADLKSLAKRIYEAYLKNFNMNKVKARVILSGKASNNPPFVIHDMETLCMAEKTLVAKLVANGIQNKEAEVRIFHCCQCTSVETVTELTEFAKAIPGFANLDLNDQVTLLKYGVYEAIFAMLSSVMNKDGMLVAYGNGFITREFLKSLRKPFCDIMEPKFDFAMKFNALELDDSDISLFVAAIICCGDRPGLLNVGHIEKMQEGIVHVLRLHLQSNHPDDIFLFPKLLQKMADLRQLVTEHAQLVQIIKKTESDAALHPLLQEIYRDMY
The assay can be described thus: Cellular PPARalpha assay (stably transfected HEK luciferase reporter cell line). The assay is classed as cell-based. As to conditions: GR-GAL4-humanPPARalpha-LBD, luciferase readout. As to the method:
The potency of substances which bind to human PPARalpha and activate in an agonistic manner is analyzed using a stably transfected HEK cell line (HEK=human embryo kidney) which is referred to here as PPARalpha reporter cell line. It contains two genetic elements, a luciferase reporter element (pdeltaM-GAL4-Luc-Zeo) and a PPARalpha fusion protein (GR-GAL4-humanPPARalpha-LBD) which mediates expression of the luciferase reporter element depending on a PPARalpha ligand. The stably and constitutively expressed fusion protein GR-GAL4-humanPPARalpha-LBD binds in the cell nucleus of the PPARalpha reporter cell line via the GAL4 protein portion to the GAL4 DNA binding motifs 5′-upstream of the luciferase reporter element which is integrated in the genome of the cell line. There is only little expression of the luciferase reporter gene without addition of a PPARalpha ligand if fatty acid-depleted fetal calf serum (cs-FCS) is used in the assay. PPARalpha ligands bind and activate the PPARalpha fusion protein and thereby bring about expression of the luciferase reporter gene. The luciferase which is formed can be detected by means of chemiluminescence via an appropriate substrate.
The PPARalpha reporter cell line was prepared in 2 stages. Firstly, the luciferase reporter element was constructed and stably transfected into HEK cells. […] The minimal MMTV promoter section contains a CCAAT box and a TATA element in order to enable efficient transcription by RNA polymerase II. […] Then the complete Photinus pyralis gene (Genbank Accession # M15077) was cloned in 3′-downstream of the GAL4-MMTV element. After sequencing, the luceriferase reporter element consisting of five GAL4 binding sites, MMTV promoter and luciferase gene was recloned into a plasmid which confers zeocin resistance in order to obtain the plasmid pdeltaM-GAL4-Luc-Zeo. This vector was transfected into HEK cells in accordance with the statements in Ausubel, F. M. et al. (Current protocols in molecular biology, Vol. 1-3, John Wiley & Sons, Inc., 1995). […] In a second step, the PPARalpha fusion protein (GR-GAL4-humanPPARalpha-LBD) was introduced into the stable cell clone described. […] The cDNA of the ligand-binding domain of the human PPARalpha receptor (amino acids S167-Y468; Genbank Accession # S74349) was cloned in at the 3′-end of this GR-GAL4 construct. The fusion construct prepared in this way (GR-GAL4-humanPPARalpha-LBD) was recloned into the plasmid pcDNA3 (from Invitrogen) in order to enable constitutive expression therein by the cytomegalovirus promoter. This plasmid was linearized with a restriction endonuclease and stably transfected into the previously described cell clone containing the luciferase reporter element. The finished PPARalpha reporter cell line which contains a luciferase reporter element and constitutively expresses the PPARalpha fusion protein (GR-GAL4-human PPARalpha-LBD) was isolated by selection with zeocin (0.5 mg/ml) and G418 (0.5 mg/ml).
The activity of PPARalpha agonists is determined in a 3-day assay which is described below: […]
(Reporter assays use an easily measured gene product as a stand-in for the process of interest.)
As usually defined, the EC50 is the midpoint of the concentration-response curve. A lower EC50 goes with higher potency in that assay. Consider `Cc1cccc(CO[C@@H]2CCC[C@H](OCCN(CCc3ccc(Cl)cc3)C(=O)Nc3ccccc3)C2)c1C(=O)O` [II, 2-{(1R,3S)-3-[2-(1-[2-(4-chlorophenyl)ethyl]-3-phenylureido)ethoxy]cyclohexyloxymethyl}-6-methylbenzoic acid], for which it took 4.9 nM to reach a half-maximal effect (EC50).

As to `Cc1ccccc1NC(=O)N(CCO[C@H]1CCC[C@@H](OCc2cccc(C)c2C(=O)O)C1)C1CCCCC1` (racemic) [XV, 2-{cis-3-[2-(1-cyclohexyl-3-o-tolylureido)ethoxy]cyclohexyloxymethyl}-6-methylbenzoic acid], the EC50 was found to be 31 nM.

In the case of `CCCCNC(=O)N(CCOC1CCCC(OCc2cccc(C)c2C(=O)O)C1)C(C)CC(C)C` (mixture of isomers) [XXII, 2-(cis-3-{2-[3-butyl-1-((1S)/(1R),3-dimethylbutyl)-ureido]ethoxy}cyclohexyloxymethyl)-6-methylbenzoic acid], the EC50 is 3.3 nM.

The compound `CCCCCCCN(CCO[C@H]1CCC[C@@H](OCc2cccc(C)c2C(=O)O)C1)C(=O)Nc1ccccc1` [IX, 2-{(1R,3S)-3-[2-(1-heptyl-3-phenylureido)ethoxy]cyclohexyloxymethyl}-6-methylbenzoic acid] showed an EC50 of 0.13 nM.

As to `CCCCNC(=O)N(CCO[C@H]1CCC[C@@H](OCc2cccc(C)c2C(=O)O)C1)C1CCCCC1` (racemic) [XVII, 2-{cis-3-[2-(3-butyl-1-cyclohexylureido)ethoxy]cyclohexyloxymethyl}-6-methylbenzoic acid], the midpoint of the response, the EC50, lay at 84 nM.

With `CCCCCCCN(CCO[C@H]1CCC[C@@H](OCc2cccc(C)c2C(=O)O)C1)C(=O)NCCCC` (racemic) [XXXIX, 2-{cis-3-[2-(3-butyl-1-heptylureido)ethoxy]cyclohexyloxy-methyl}-6-methylbenzoic acid], the response was half-maximal at 0.17 nM (EC50).

`Cc1cccc(CO[C@@H]2CCC[C@H](OCCN(C(=O)Nc3cccc(F)c3)C3CC3)C2)c1C(=O)O` (racemic) [XLV, 2-(cis-3-{2-[1-cyclopropyl-3-(3-fluorophenyl)-ureido]ethoxy}cyclohexyloxymethyl)-6-methylbenzoic acid]: the EC50 stood at 90 nM.

The compound `Cc1cccc(CO[C@@H]2CCC[C@H](OCCN(CCCc3ccccc3)C(=O)Nc3ccccc3)C2)c1C(=O)O` [Example I, 2-{(1R,3S)-3-[2-(1-[3-phenylpropyl]-3-phenylureido)ethoxy]cyclohexyloxymethyl}-6-methylbenzoic acid] had an EC50 of 1.9 nM.

`CCCCCN(CCO[C@H]1CCC[C@@H](OCc2cccc(C)c2C(=O)O)C1)C(=O)Nc1ccccc1` [VII, 2-{(1 R,3S)-3-[2-(1-pentyl-3-phenylureido)ethoxy]cyclohexyloxymethyl}-6-methylbenzoic acid] came in with an EC50 of 1.7 nM.

Consider `CCCCNC(=O)N(CCO[C@H]1CCC[C@@H](OCc2cccc(C)c2C(=O)O)C1)Cc1ccc(C)cc1` [XII, 2-((1R,3S)-3-{2-[3-butyl-1-(4-methylbenzyl)ureido]ethoxy}-cyclohexyloxymethyl)-6-methylbenzoic acid], for which the EC50 was determined as 0.07 nM.

Compound `Cc1cccc(CO[C@@H]2CCC[C@H](OCCN(C(=O)Nc3cccc(F)c3)C3CCCCC3)C2)c1C(=O)O` (racemic) [XVI, 2-(cis-3-{2-[1-cyclohexyl-3-(3-fluorophenyl)-ureido]ethoxy}cyclohexyloxymethyl)-6-methylbenzoic acid] yielded an EC50 of 38 nM.

For the compound `Cc1cccc(CO[C@@H]2CCC[C@H](OCCN(CC(C)(C)C)C(=O)Nc3ccccc3)C2)c1C(=O)O` [VIII, 2-((1R,3S)-3-{2-[1-(2,2-dimethylpropyl)-3-phenylureido]ethoxy}cyclohexyloxymethyl)-6-methylbenzoic acid], the EC50 is 96 nM.
